Test results as given in publication PMC5867622, “Microginins from a Microcystis sp. Bloom Material Collected from the Kishon Reservoir, Israel” (Marine Drugs, 2018).
Where two headings read alike, the source gives them in different places. Square brackets hold non-standard residues; d marks the D form. Peptide text beside a SMILES is read from it. * marks the point of attachment. X13 = CN[C@H](CCCCCCC(Cl)Cl)[C@@H](O)C(=O)*; X4 = CN[C@H](CCCCCCCCl)[C@@H](O)C(=O)*; X7 = N[C@H](CCCCCCCCl)[C@@H](O)C(=O)*; NMeY = CN[C@@H](Cc1ccc(O)cc1)C(=O)O; X17 = CCCCC[C@H](N)[C@H](O)C(=O)*; NMeI = CC[CH](C)[CH](NC)C(=O)O; NMeL = CN[CH](CC(C)C)C(=O)O; X11 = CCCCCCCC(NC)C(O)C(=O)*; X5 = NC(CCCCCCCCl)C(O)C(=O)*; X16 = CCCCCC(NC)C(O)C(=O)*

How the values were obtained:
[1] = test system: APN; details: Table S1, cited from earlier work
[2] = molecular target: T1, porcine kidney microsomal aminopeptidase M (Sus scrofa, UniProt P15145); test: Aminopeptidase M inhibitory assay; type: biochemical
T1 construct: purchased Sigma-Aldrich (St. Louis, MO, USA); host or cells: porcine kidney microsomes
T1 sequence (P15145 1-963): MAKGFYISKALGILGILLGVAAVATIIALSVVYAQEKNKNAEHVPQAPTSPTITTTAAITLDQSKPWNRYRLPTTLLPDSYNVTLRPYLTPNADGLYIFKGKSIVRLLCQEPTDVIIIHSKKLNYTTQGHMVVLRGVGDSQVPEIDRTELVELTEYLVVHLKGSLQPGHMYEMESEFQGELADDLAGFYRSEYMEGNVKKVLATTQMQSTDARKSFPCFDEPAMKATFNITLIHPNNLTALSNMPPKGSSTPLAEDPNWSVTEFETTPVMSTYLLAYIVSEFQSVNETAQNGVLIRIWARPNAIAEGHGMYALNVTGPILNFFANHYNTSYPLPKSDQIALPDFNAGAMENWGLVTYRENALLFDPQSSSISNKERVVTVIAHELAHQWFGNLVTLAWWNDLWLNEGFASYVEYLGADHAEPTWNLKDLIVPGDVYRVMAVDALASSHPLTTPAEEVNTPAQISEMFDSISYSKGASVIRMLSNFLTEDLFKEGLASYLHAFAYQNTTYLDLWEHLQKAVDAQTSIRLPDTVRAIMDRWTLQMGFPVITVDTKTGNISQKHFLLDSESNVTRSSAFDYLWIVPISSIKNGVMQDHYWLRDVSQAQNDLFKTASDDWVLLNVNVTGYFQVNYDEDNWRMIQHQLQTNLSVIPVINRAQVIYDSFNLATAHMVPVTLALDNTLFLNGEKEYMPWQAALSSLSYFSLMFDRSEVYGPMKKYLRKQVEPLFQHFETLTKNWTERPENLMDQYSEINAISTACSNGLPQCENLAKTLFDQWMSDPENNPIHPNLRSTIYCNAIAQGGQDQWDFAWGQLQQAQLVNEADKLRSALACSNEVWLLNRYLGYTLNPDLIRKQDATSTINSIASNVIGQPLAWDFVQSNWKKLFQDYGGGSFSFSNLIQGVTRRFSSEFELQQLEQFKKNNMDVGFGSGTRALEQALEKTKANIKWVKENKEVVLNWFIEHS
Procedure: Aminopeptidase M inhibitory activity was determined according to the procedure described by Ishida et al.. A reaction mixture composed of 20 μL of L-leucine-p-nitroanilide (2 mM in 0.1 M Tris-HCl buffer at pH 7.0), 50 μL of 0.1 M Tris-HCl buffer (pH 7.0) and 20 μL of test solution was added to each well of a 96-well microtiter plate. The plate was incubated at 37 °C for 5 min; thereafter, 10 μL of porcine kidney microsomal aminopeptidase M [EC Number 232-942-5, Sigma-Aldrich (St. Louis, MO, USA), […] in 3.5 M (NH4)2SO4] was added to each well, and the absorbance at 405 nm was measured for 30 min. The microginin samples were dissolved in DMSO at a concentration of 1 mg/mL, and the IC50 values were determined by analysis of a series of dilutions (from 45.5 μM to 0.00069 μM). A sigmoidal curve of the enzyme inhibition versus the concentration of the inhibitor was observed that was fit to a 4-parameter logistic model.

[3] = test system: ACE; details: Table S1; ref 3 (Neumann et al., FEMS Microbiol. Lett. 1997); cited from earlier work
[4] = test system: cAPM; parameters: method as in earlier work; details: Table S1; ref 3 (Neumann et al., FEMS Microbiol. Lett. 1997); cited from earlier work
[5] = test system: mAPM; parameters: method as in earlier work; details: Table S1; ref 3 (Neumann et al., FEMS Microbiol. Lett. 1997); cited from earlier work
[6] = Table 4, substrate L-leucine-p-nitroanilide, Tris-HCl pH 7.0, 37 °C, read-out: IC50 in μM ± SD
[7] = Table S1, source 14 = this manuscript, heading: Activity: APM, read-out: Activity: APM
[8] = read-out: Activity: APM, Table S1, source 14 = this manuscript
[9] = read-out: IC50 in μM ± SD, Table 4, substrate L-leucine-p-nitroanilide, Tris-HCl pH 7.0, 37 °C

CC(C)[C@@H](C(=O)N[C@@H](Cc1ccc(O)cc1)C(=O)O)N(C)C(=O)[C@H](C)NC(=O)[C@@H](O)[C@@H](N)CCCCCCCCl [Microginin AL584]
Activity: APN (ni) ([1]; ref 10 (Gesner-Apter, Carmeli, Tetrahedron 2008)): ni

CCC(C)C(C(=O)N1CCCC1C(=O)NC(Cc1ccc(O)cc1)C(=O)O)N(C)C(=O)C(Cc1ccc(O)cc1)NC(=O)C(O)C(N)CCCCCCCCl (stereo not drawn) [Microginin HG787] (X5-Y[NMeI]PY-OH; configuration not given here)
IC50 ([1]; ref 11 (Lifshits et al., Tetrahedron 2011)): 7700 nM

CCCCCCC[C@@H](NC)[C@@H](O)C(=O)N[C@@H](Cc1ccc(O)cc1)C(=O)N(C)[C@@H](CC(C)C)C(=O)N1CCC[C@H]1C(=O)O [Microginin KR604]
IC50 [2, 6]: 7.5 ± 0.1 µM | IC50 [2, 7]: 7.5 µM

CN[C@H](CCCCCCCCl)[C@@H](O)C(=O)N[C@@H](Cc1ccc(O)cc1)C(=O)N(C)[C@@H](CC(C)C)C(=O)N1CCC[C@H]1C(=O)O [Microginin KR638]
IC50 [2, 6]: 3.8 ± 0.3 µM | IC50 [2, 7]: 3.8 µM

CCCCCCCC(NC)C(O)C(=O)NC(Cc1ccc(O)cc1)C(=O)N(C)C(CC(C)C)C(=O)N1CCCC1C(=O)NC(Cc1ccc(O)cc1)C(=O)O (stereo not drawn) [Microginin KR767] (X11-Y[NMeL]PY-OH; configuration not given here)
IC50 [2, 8]: 0.0005 µM | IC50 [2, 9]: 0.5 ± 0.2 µM

CC(C)C[C@@H](C(=O)N1CCC[C@H]1C(=O)N[C@@H](Cc1ccc(O)cc1)C(=O)O)N(C)C(=O)[C@H](Cc1ccc(O)cc1)NC(=O)[C@H](O)[C@H](N)CCCCCCCCl [Microginin KR787] (X7-Y[NMeL]PY-OH)
IC50 [2, 8]: 0.0057 µM | IC50 [2, 9]: 5.7 ± 0.1 µM

CN[C@H](CCCCCCCCl)[C@@H](O)C(=O)N[C@@H](Cc1ccc(O)cc1)C(=O)N(C)[C@@H](CC(C)C)C(=O)N1CCC[C@H]1C(=O)N[C@@H](Cc1ccc(O)cc1)C(=O)O [Microginin KR801] (X4-Y[NMeL]PY-OH)
IC50 [2, 8]: 0.0001 µM | IC50 [2, 9]: 0.1 ± 0.2 µM

CN[C@H](CCCCCCCCl)[C@@H](O)C(=O)N[C@@H](Cc1ccc(O)cc1)C(=O)N(C)[C@@H](CC(C)C)C(=O)N1CCC[C@H]1C(=O)N[C@@H](Cc1ccc(O)cc1)C(=O)OC [Microginin KR815] (X4-Y[NMeL]PY-OMe)
IC50 ([2]; Activity: APM, Table S1, source 14 = this manuscript): 0.072 µM | IC50 ([2]; IC50 in μM ± SD, Table 4, substrate L-leucine-p-nitroanilide, Tris-HCl pH 7.0, 37 °C): 72 ± 0.1 µM

CN[C@H](CCCCCCC(Cl)Cl)[C@@H](O)C(=O)N[C@@H](Cc1ccc(O)cc1)C(=O)N(C)[C@@H](CC(C)C)C(=O)N1CCC[C@H]1C(=O)N[C@@H](Cc1ccc(O)cc1)C(=O)O [Microginin KR835] (X13-Y[NMeL]PY-OH)
IC50 [2, 8]: 0.0004 µM | IC50 [2, 9]: 0.4 ± 0.2 µM

CCCCCC(NC)C(O)C(=O)N[C@H](C(=O)N(C)[C@H](C(=O)N(C)[C@@H](Cc1ccc(O)cc1)C(=O)N[C@@H](Cc1ccc(O)cc1)C(=O)O)[C@@H](C)CC)C(C)C (stereo partly drawn) [Microginin SD755] (X16-V[NMeI][NMeY]Y-OH)
IC50 ([1]; ref 7 (Resef, Carmeli, Tetrahedron 2001)): 18500 nM

CCCCC[C@H](N)[C@H](O)C(=O)N[C@H](C(=O)N(C)[C@H](C(=O)N(C)[C@@H](Cc1ccc(O)cc1)C(=O)N[C@@H](Cc1ccc(O)cc1)C(=O)O)[C@@H](C)CC)C(C)C [Nostoginin BN741] (X17-V[NMeI][NMeY]Y-OH)
IC50 ([1]; ref 8 (Ploutno, Carmeli, Tetrahedron 2002)): 1300 nM

Microginin FR1
IC50 [3]: 16000 nM | IC50 [4]: 1300 nM | IC50 [5]: 6 nM
